Data taken from patent publication US5162330A, “Dynemicin C antibiotic, its triacetyl derivative and pharmaceutical composition containing same” (Bristol-Myers Squibb Co., priority 1990, dated 1992).
Converted amounts (≈) assume the structure as drawn.

Experiments:
[1] = system: B16-F10 (murine melanoma) cells; test: In vitro cytotoxicity; assay type: cell-based; details: Mus musculus, 72 hours, 37° C., neutral red, 540 nm
Procedure: (§1) Dynemicin C and its triacetate derivative were tested for in vitro cytotoxicity against murine and human tumor cell lines. Dynemicin A and its triacetate derivative were used as reference compounds. B16-F10 (murine melanoma) cells were grown to the logarithmic phase in enriched Eagle minimum essential medium (MEM) supplemented with fetal calf serum (FCS, 10%) and kanamycin (60 mcg/ml) and HCT-116 (human colon carcinoma) cells in Maccoy's 5A medium supplemented with FCS (10%), penicillin (100 μ/ml) and streptomycin (100 mcg/ml), and were harvested and inoculated into wells of the 96- or 24-well tissue culture plate with test materials at concentrations of 1.5×10^4, 1.3×10^4, 1.3×10^4, 2.5×10^4 and 3.0×10^4 cells/ml., respectively. They were incubated at 37° C. in a humidified atmosphere of 5% CO2 and 95% air for 72 hours. The cytotoxic activities were determined colorimetrically at 540 nm after staining viable cells with 0.006% neutral red solution.

[2] = system: HCT-116 (human colon carcinoma) cells; test: In vitro cytotoxicity; assay type: cell-based; details: 72 hours, 37° C., neutral red, 540 nm
Procedure: as §1

[3] = system: gram-positive organisms; test: In vitro antibacterial activity, gram-positive organisms as a group; assay type: cell-based; details: for activity against gram-positive organisms compared with amikacin: comparison in words; for activity against gram-positive organisms: in words
Procedure: (§2) The minimum inhibitory concentration (MIC) was determined by a two-fold serial tube dilution method using nutrient agar (pH7, Difco containing 10^5 cfu/ml).

[4] = system: gram-negative organisms; test: In vitro antibacterial activity, gram-negative organisms as a group; assay type: cell-based
Procedure: as §2

[5] = system: C. neoformans IAM4514; test: In vitro antifungal MIC; assay type: cell-based, Cryptococcus neoformans; details: for activity (compared with amphotericin B and ketoconazole): C. neoformans IAM4514, in words
Procedure: (§3) The antifungal MICs of dynemicin C and its triacetate were determined by an agar dilution method on yeast morphology agar adjusted to pH7.0 with 1/15M phosphate buffer. A 5 μl aliquot of fungal suspension containing 10^6 cells/ml was inoculated onto the surface of the antibiotic-containing agar plates with a multiinoculator.

[6] = system: Candida albicans ATCC 38247; test: In vitro antifungal MIC; assay type: cell-based; details: for activity compared with ketoconazole: Candida albicans ATCC 38247, amphotericin resistant, in words; for MIC: Candida albicans, ATCC38247, 40 h, pH 7
Procedure: as §3

[7] = system: Cryptococcus neoformans D49; test: In vitro antifungal MIC; assay type: cell-based; details: for activity (compared with amphotericin B and ketoconazole): Cryptococcus neoformans D49, in words; for MIC: Cryptococcus neoformans, D49, 40 h, pH 7
Procedure: as §3

[8] = Solubility; assay type: physicochemical
[9] = system: S. epidermidis 11-1230; test: In vitro antibacterial MIC; assay type: cell-based; details: Staphylococcus epidermidis, 111230, 18 h, pH 7
Procedure: as §2

[10] = system: S. aureus A15036 (MRSA); test: In vitro antibacterial MIC; assay type: cell-based; details: Staphylococcus aureus, 18 h, pH 7
Procedure: as §2

[11] = system: E. faecium A24817; test: In vitro antibacterial MIC; assay type: cell-based; details: Enterococcus faecium, pH 7, nutrient agar pH7, 32° C., 18 hours
Procedure: as §2

[12] = system: P. cepecia A21213; test: In vitro antibacterial MIC; assay type: cell-based; details: 18 h, pH 7
Procedure: as §2

[13] = system: X. maltophilia GN12873; test: In vitro antibacterial MIC; assay type: cell-based; details: Stenotrophomonas maltophilia, pH 7, nutrient agar pH7, 32° C., 18 hours
Procedure: as §2

[14] = system: P. aeruginosa A20599; test: In vitro antibacterial MIC; assay type: cell-based; details: Pseudomonas aeruginosa, A20599, 18 h, pH 7
Procedure: as §2

[15] = system: P. cepecia No. 651; test: In vitro antibacterial MIC; assay type: cell-based; details: 18 h, pH 7
Procedure: as §2

[16] = system: S. marcescens IPM-16; test: In vitro antibacterial MIC; assay type: cell-based; details: Serratia marcescens, IPM16, 18 h, pH 7
Procedure: as §2

[17] = system: M. luteus PCI 1001; test: In vitro antibacterial MIC; assay type: cell-based; details: Micrococcus luteus, PCI1001, pH 7, nutrient agar pH7, 32° C., 18 hours
Procedure: as §2

[18] = system: X. maltophilia No. 661; test: In vitro antibacterial MIC; assay type: cell-based; details: Stenotrophomonas maltophilia, pH 7, nutrient agar pH7, 32° C., 18 hours
Procedure: as §2

[19] = system: P. aeruginosa KKA19; test: In vitro antibacterial MIC; assay type: cell-based; details: Pseudomonas aeruginosa, pH 7, nutrient agar pH7, 32° C., 18 hours
Procedure: as §2

[20] = system: E. faecalis A9808; test: In vitro antibacterial MIC; assay type: cell-based; details: Enterococcus faecalis, A9808, 18 h, pH 7
Procedure: as §2

[21] = system: P. vulgaris IPM-13; test: In vitro antibacterial MIC; assay type: cell-based; details: Proteus vulgaris, IPM13, 18 h, pH 7
Procedure: as §2

[22] = system: P. aeruginosa IPM-8; test: In vitro antibacterial MIC; assay type: cell-based; details: Pseudomonas aeruginosa, IPM8, 18 h, pH 7
Procedure: as §2

[23] = system: M. morganii I510; test: In vitro antibacterial MIC; assay type: cell-based; details: Morganella morganii, I510, 18 h, pH 7
Procedure: as §2

[24] = system: P. aeruginosa A9843A; test: In vitro antibacterial MIC; assay type: cell-based; details: Pseudomonas aeruginosa, 18 h, pH 7
Procedure: as §2

[25] = system: P. mirabilis IFO 3849; test: In vitro antibacterial MIC; assay type: cell-based; details: Proteus mirabilis, IFO3849, 18 h, pH 7
Procedure: as §2

[26] = system: S. marcescens IPM-15; test: In vitro antibacterial MIC; assay type: cell-based; details: Serratia marcescens, IPM15, 18 h, pH 7
Procedure: as §2

[27] = system: S. aureus smith; test: In vitro antibacterial MIC; assay type: cell-based; details: Staphylococcus aureus, 18 h, pH 7
Procedure: as §2

[28] = system: K. pneumoniae PCI 602; test: In vitro antibacterial MIC; assay type: cell-based; details: Klebsiella pneumoniae, PCI602, 18 h, pH 7
Procedure: as §2

[29] = system: S. aureus IPM-24 (MRSA); test: In vitro antibacterial MIC; assay type: cell-based; details: Staphylococcus aureus, 18 h, pH 7
Procedure: as §2

[30] = system: P. aeruginosa IPM-9; test: In vitro antibacterial MIC; assay type: cell-based; details: Pseudomonas aeruginosa, IPM9, 18 h, pH 7
Procedure: as §2

[31] = system: P. rettgeri IPM-14; test: In vitro antibacterial MIC; assay type: cell-based; details: Providencia rettgeri, IPM14, 18 h, pH 7
Procedure: as §2

[32] = system: E. coli Juhl A15119; test: In vitro antibacterial MIC; assay type: cell-based; details: Escherichia coli, JUHLA15119, 18 h, pH 7
Procedure: as §2

[33] = system: E. coli 255; test: In vitro antibacterial MIC; assay type: cell-based; details: Escherichia coli, 255, 18 h, pH 7
Procedure: as §2

[34] = system: E. cloacae IPM-12; test: In vitro antibacterial MIC; assay type: cell-based; details: Enterobacter cloacae, IPM12, 18 h, pH 7
Procedure: as §2

[35] = system: Pseudomonas aeruginosa species; test: In vitro antibacterial activity, Pseudomonas aeruginosa as a group; assay type: cell-based; details: in words
Procedure: as §2

[36] = system: murine and human tumor cell lines; test: In vitro cytotoxicity, tumor cell lines as a group; assay type: cell-based; details: in words
Procedure: as §1

COC1=C(C=O)C(C)C23OC24c2cc(OC(C)=O)c5c(c2NC3C#CC=CC#CC14)C(=O)c1c(OC(C)=O)ccc(OC(C)=O)c1C5=O (stereo not drawn) [Dynemicin C triacetate]
IC50 [1]: 0.00074 µg/mL | IC50 [2]: 0.0028 µg/mL | activity against gram-positive organisms compared with amikacin [3]: much better activities against these organisms than amikacin | activity against gram-positive organisms [3]: strong activity | MIC ([4]; 18 h, read-out: MIC (range)): 0.05 to 0.8 µg/mL | activity (compared with amphotericin B and ketoconazole) [5]: inactive | activity compared with ketoconazole [6]: stronger than that of ketoconazole | MIC [6]: 0.4 µg/mL | activity (compared with amphotericin B and ketoconazole) [7]: inactive | MIC [7]: > 100 µg/mL | solubility relative to dynemicin C ([8]; solvent not stated): increased solubility relative to dynemicin C | MIC [9]: 0.0008 µg/mL | MIC [10]: 0.0004 µg/mL | MIC [11]: 0.0063 µg/mL | MIC [12]: 0.2 µg/mL | MIC [13]: 0.8 µg/mL | MIC [14]: 0.4 µg/mL | MIC [15]: 0.2 µg/mL | MIC [16]: 0.4 µg/mL | MIC [17]: 0.0031 µg/mL | MIC [18]: 0.2 µg/mL | MIC [19]: 0.4 µg/mL | MIC [20]: 0.0063 µg/mL | MIC [21]: 0.1 µg/mL | MIC [22]: 0.4 µg/mL | MIC [23]: 0.05 µg/mL | MIC [24]: 0.2 µg/mL | MIC [25]: 0.2 µg/mL | MIC [26]: 0.8 µg/mL | MIC [27]: 0.0008 µg/mL | MIC [28]: 0.2 µg/mL | MIC [29]: 0.0004 µg/mL | MIC [30]: 6.3 µg/mL | MIC [31]: 0.1 µg/mL | MIC [32]: 0.4 µg/mL | MIC [33]: 0.4 µg/mL | MIC [34]: 0.8 µg/mL

COC1=C(C=O)C(C)C23OC24c2cc(O)c5c(c2NC3C#CC=CC#CC14)C(=O)c1c(O)ccc(O)c1C5=O (stereo not drawn) [Dynemicin C]
IC50 [1]: 0.0028 µg/mL (≈ 0.00537 µM) | IC50 [2]: 0.0086 µg/mL (≈ 0.0165 µM) | activity against gram-positive organisms compared with amikacin [3]: much better activities against these organisms than amikacin | activity against gram-positive organisms [3]: strong activity | activity against gram-negatives compared with amikacin ([4]; other gram-negatives than P. aeruginosa, except Enterobacter cloacae IPM-12 and Serratia marcescens IPM-16): activity better than amikacin | activity (compared with amphotericin B and ketoconazole) [5]: much more active than amphotericin B and ketoconazole | MIC ([5]; Cryptococcus neoformans, IAM4514, 40 h, pH 7): 0.013 µg/mL (≈ 0.0249 µM) | activity compared with ketoconazole [6]: stronger than that of ketoconazole | MIC [6]: 0.8 µg/mL (≈ 1.53 µM) | activity (compared with amphotericin B and ketoconazole) [7]: much more active than amphotericin B and ketoconazole | MIC [7]: 0.0063 µg/mL (≈ 0.0121 µM) | solubility in 1,4-dioxane ([8]; 1,4-dioxane): soluble | solubility in acetonitrile ([8]; acetonitrile): soluble | solubility in dimethylformamide ([8]; dimethylformamide): soluble | solubility in dimethylsulfoxide ([8]; dimethylsulfoxide): soluble | solubility in ethyl acetate ([8]; ethyl acetate): slightly soluble | solubility in methanol ([8]; methanol): slightly soluble | solubility in n-hexane ([8]; n-hexane): practically insoluble | solubility in water ([8]; water): practically insoluble | MIC [9]: < 0.0002 µg/mL | MIC [10]: < 0.0002 µg/mL | MIC [11]: 0.0008 µg/mL (≈ 0.00153 µM) | MIC [12]: 0.1 µg/mL (≈ 0.192 µM) | MIC [13]: 100 µg/mL (≈ 192 µM) | MIC [14]: 100 µg/mL (≈ 192 µM) | MIC [15]: 0.1 µg/mL (≈ 0.192 µM) | MIC [16]: 100 µg/mL (≈ 192 µM) | MIC [17]: 0.0008 µg/mL (≈ 0.00153 µM) | MIC [18]: 1.6 µg/mL (≈ 3.07 µM) | MIC [19]: 100 µg/mL (≈ 192 µM) | MIC [20]: 0.0008 µg/mL (≈ 0.00153 µM) | MIC [21]: 0.05 µg/mL (≈ 0.0959 µM) | MIC [22]: 100 µg/mL (≈ 192 µM) | MIC [23]: 0.1 µg/mL (≈ 0.192 µM) | MIC [24]: 100 µg/mL (≈ 192 µM) | MIC [25]: 0.8 µg/mL (≈ 1.53 µM) | MIC [26]: 25 µg/mL (≈ 47.9 µM) | MIC [27]: < 0.0002 µg/mL | MIC [28]: 0.8 µg/mL (≈ 1.53 µM) | MIC [29]: < 0.0002 µg/mL | MIC [30]: 100 µg/mL (≈ 192 µM) | MIC [31]: 0.1 µg/mL (≈ 0.192 µM) | MIC [32]: 100 µg/mL (≈ 192 µM) | MIC [33]: 100 µg/mL (≈ 192 µM) | MIC [34]: 100 µg/mL (≈ 192 µM) | activity against Pseudomonas aeruginosa species [35]: did not show any activity | cytotoxic activity compared with dynemicin A [36]: almost the same activity as dynemicin A
